Consider 13 molecules from patent US12364694B2 (priority 2018, dated 2025).

One data set addresses T1, dopamine D1 receptor (Homo sapiens, UniProt P21728).
T1 construct: expressed in transfected cells; host or cells: CHO
Put plainly: Radioligand binding assay, human recombinant receptor in CHO cells. As to conditions: read-out: % Inhibition (mean) of control specific binding.

Data set [1] deals with T2, serotonin transporter (SERT) (Homo sapiens, UniProt P31645).
T2 construct: expressed in transfected cells; host or cells: CHO
Put plainly: Radioligand binding assay, human recombinant transporter in CHO cells. As to conditions: read-out: % Inhibition (mean) of control specific binding.

A further data set has as its target T3, dopamine D2S receptor (Homo sapiens, UniProt P14416).
T3 construct: expressed in transfected cells; host or cells: HEK-293
Put plainly: Radioligand binding assay, human recombinant receptor in HEK cells. The conditions noted are these: read-out: % Inhibition (mean) of control specific binding.

Data set [2] addresses T4, serotonin 5-HT2A receptor (Homo sapiens, UniProt P28223).
T4 construct: expressed in transfected cells; host or cells: HEK-293
The description is as above. As to conditions: read-out: % Inhibition (mean) of control specific binding.

Another data set concerns male Sprague-Dawley rats. As to conditions: cited from earlier work; for tolerance during repeated dosing: subcutaneous dosing for 28 days, 0.3 and 3 mg/kg; for physical dependence upon cessation of dosing: withdrawal after 28 days subcutaneous dosing.
For data set [3] the following is noted: rat, in vivo, po, 10 mg/kg.
Another data set in a line: in vivo. As to conditions: rat.
Data set [4] has as its target serotonin 5-HT2 receptor family. As to conditions: mice, oral dosing, subcutaneous DOI; cited from earlier work.
For data set [5], the system named is protein phosphorylation (ERK1, ERK2, Glul, NR2B and TH) in mice nucleus accumbens. As to conditions: cited from earlier work.
A further data set has as its system mouse formalin paw test. As to conditions: subcutaneous paw pre-treatment 30 minutes prior to […] formalin, three doses; cited from earlier work.
The test system of data set [6] is mouse marble-burying model for OCD. As to conditions: positive control, after 30 minutes; cited from earlier work.

T3 sequence (P14416 1-414 isoform P14416-2): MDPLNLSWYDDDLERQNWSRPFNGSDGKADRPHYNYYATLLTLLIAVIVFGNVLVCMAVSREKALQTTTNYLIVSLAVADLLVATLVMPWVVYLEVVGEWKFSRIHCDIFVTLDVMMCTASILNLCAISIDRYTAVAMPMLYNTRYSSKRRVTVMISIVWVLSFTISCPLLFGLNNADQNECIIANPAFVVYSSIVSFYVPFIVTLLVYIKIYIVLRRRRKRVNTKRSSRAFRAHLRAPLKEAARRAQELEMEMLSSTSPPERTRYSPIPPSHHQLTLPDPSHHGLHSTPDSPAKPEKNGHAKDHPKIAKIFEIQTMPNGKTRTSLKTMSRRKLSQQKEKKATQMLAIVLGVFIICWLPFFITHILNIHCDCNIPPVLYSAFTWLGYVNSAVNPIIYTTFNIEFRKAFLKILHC
T2 sequence (P31645 whole entry): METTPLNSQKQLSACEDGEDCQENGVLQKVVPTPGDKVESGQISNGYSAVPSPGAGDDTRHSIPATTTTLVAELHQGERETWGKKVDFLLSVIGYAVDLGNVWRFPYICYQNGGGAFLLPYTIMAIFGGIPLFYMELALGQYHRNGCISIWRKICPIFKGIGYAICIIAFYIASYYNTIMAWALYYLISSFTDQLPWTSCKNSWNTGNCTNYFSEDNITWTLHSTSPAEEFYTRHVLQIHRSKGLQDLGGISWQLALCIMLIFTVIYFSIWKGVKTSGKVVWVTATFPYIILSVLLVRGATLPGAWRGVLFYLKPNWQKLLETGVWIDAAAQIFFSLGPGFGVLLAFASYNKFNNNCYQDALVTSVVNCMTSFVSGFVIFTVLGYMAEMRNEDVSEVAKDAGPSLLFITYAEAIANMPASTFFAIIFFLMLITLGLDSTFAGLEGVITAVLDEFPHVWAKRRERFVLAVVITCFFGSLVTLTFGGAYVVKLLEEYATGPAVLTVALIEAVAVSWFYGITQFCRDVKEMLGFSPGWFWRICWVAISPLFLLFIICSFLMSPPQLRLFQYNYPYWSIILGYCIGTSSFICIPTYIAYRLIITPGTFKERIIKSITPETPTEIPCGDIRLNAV
T1 sequence (P21728 whole entry): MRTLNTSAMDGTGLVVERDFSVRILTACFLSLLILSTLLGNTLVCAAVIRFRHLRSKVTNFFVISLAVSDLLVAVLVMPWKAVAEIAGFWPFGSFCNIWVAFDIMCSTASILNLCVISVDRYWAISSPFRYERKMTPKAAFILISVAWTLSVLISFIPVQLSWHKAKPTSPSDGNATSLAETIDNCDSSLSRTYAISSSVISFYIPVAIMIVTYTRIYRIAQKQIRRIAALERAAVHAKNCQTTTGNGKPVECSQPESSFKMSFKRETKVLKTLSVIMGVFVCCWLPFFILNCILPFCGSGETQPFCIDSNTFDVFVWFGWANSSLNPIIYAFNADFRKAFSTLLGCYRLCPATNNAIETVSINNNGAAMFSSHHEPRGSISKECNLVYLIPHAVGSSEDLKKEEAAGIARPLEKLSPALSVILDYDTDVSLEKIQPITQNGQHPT
T4 sequence (P28223 whole entry): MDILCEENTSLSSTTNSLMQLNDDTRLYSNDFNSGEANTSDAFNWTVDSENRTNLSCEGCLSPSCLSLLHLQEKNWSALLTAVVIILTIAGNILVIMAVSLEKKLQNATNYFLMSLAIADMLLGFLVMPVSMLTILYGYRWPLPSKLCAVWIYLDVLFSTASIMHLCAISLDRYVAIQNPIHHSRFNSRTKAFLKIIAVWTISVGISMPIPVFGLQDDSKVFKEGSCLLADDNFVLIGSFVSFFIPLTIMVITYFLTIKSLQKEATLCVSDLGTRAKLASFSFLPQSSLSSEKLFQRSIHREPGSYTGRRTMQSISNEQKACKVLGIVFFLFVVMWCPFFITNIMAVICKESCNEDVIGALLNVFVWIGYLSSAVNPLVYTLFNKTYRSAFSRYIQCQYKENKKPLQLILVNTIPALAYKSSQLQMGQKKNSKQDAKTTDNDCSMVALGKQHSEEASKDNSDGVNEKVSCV

For the molecule `[2H]C1([2H])C(=O)Nc2cccc3c2N1[C@H]1CCN(CCCOc2ccc(F)cc2)C[C@@H]31` [Example 1, (6bR,10aS)-1,1-d2-8-(3-(4-fluorophenoxy)propyl)-6b,7,8,9,10,10a-hexahydro-1H-pyrido[3′,4′:4,5]pyrrolo[1,2,3-de]quinoxalin-2(3H)-one], the inhibition at 0.1 µM at dopamine D1 receptor amounted to 36.6%. Besides, in data set [1], the inhibition at 1 µM came to 34.5%. Further, the inhibition at 0.3 µM at dopamine D2S receptor amounted to 47.5%. For the same molecule, in [2], the inhibition at 0.01 µM was 64.7%.
`CN1CC[C@]23c4c5ccc(O)c4O[C@H]2[C@@H](O)C=C[C@H]3[C@H]1C5` [Morphine, reference compound]: in the data set on male Sprague-Dawley rats, the “tolerance during repeated dosing” value was “clear signs of tolerance and dependence”; the “physical dependence upon cessation of dosing” value is “clear signs of tolerance and dependence”.
Consider `[2H]C([2H])(CC([2H])([2H])N1CC[C@H]2[C@@H](C1)c1cccc3c1N2CC(=O)N3)Oc1ccc(F)cc1` [Example 3, (6bR,10aS)-8-(1,1,3,3-d4-3-(4-fluorophenoxy)propyl)-6b,7,8,9,10,10a-hexahydro-1H-pyrido[3′,4′:4,5]pyrrolo[1,2,3-de]quinoxalin-2(3H)-one], for which the inhibition at 0.1 µM on dopamine D1 receptor is 36.3%. In addition, the inhibition at 1 µM in data set [1] was 31.8%. The inhibition at 0.3 µM on dopamine D2S receptor was 55.1%. Also, the inhibition at 0.01 µM in data set [2] was 64.1%.
As for `[2H]C([2H])(Oc1ccc(F)cc1)C([2H])([2H])C([2H])([2H])N1CC[C@H]2[C@@H](C1)c1cccc3c1N2CC(=O)N3` [Example 2, (6bR,10aS)-8-(1,1,2,2,3,3-d6-3-(4-fluorophenoxy)propyl)-6b,7,8,9,10,10a-hexahydro-1H-pyrido[3′,4′: 4,5]pyrrolo[1,2,3-de]quinoxalin-2(3H)-one], the plasma concentration result in [3] is recorded as “BLQ”. Further, in “in vivo” (po, 10 mg/kg), the AUC was 3660 ng·h/mL, the Cmax was determined as 64.6 ng/mL, the Tmax amounted to 6 h and the concentration at 0.033 h is 1 ng/mL. Also, in the data set “in vivo” (po, 10 mg/kg), the concentration at 0.083 h turned out to be 10.6 ng/mL, the concentration at 0.5 h was found to be 55.7 ng/mL, the concentration at 1 h amounted to 72.3 ng/mL and the concentration at 2 h was determined as 143 ng/mL. In the data set “in vivo” (po, 10 mg/kg), this molecule yielded a concentration at 6 h of 260 ng/mL, a concentration at 8 h of 200 ng/mL, a concentration at 12 h of 196 ng/mL and a concentration at 24 h of 3 ng/mL. The same molecule returned a concentration at […] in the data set “in vivo” (po, 10 mg/kg) of 56.9 ng/mL. Moreover, in “in vivo” (sc, 3 mg/kg), the AUC came to 492 ng·h/mL, the peak concentration (Cmax) amounted to 81.4 ng/mL, the Tmax was determined as 1 h and the concentration at 0.033 h amounted to 6 ng/mL. Moreover, in “in vivo” (sc, 3 mg/kg), the concentration at 0.083 h came out at 27.5 ng/mL, the concentration at 0.5 h is 80 ng/mL, the concentration at 1 h amounted to 81.4 ng/mL and the concentration at 2 h was 65.2 ng/mL. In “in vivo” (sc, 3 mg/kg), this molecule had a concentration at 6 h of 15 ng/mL, a concentration at 8 h of 6.7 ng/mL, a concentration at 12 h of 3.9 ng/mL and a concentration at 24 h of 2.1 ng/mL. Moreover, in “in vivo” (sc, 3 mg/kg), the concentration at 48 h was determined as 2 ng/mL, the concentration at 72 h came to 1 ng/mL and the concentration at […] came to 48.2 ng/mL.
`[2H]c1c([2H])c(OC([2H])([2H])C([2H])([2H])C([2H])([2H])N2CC[C@H]3[C@@H](C2)c2cccc4c2N3C([2H])([2H])C(=O)N4)c([2H])c([2H])c1F` [Example 8, (6bR,10aS)-1,1-dideuterio-8-(1,1,2,2,3,3-hexadeuterio-3-(2,3,5,6-tetradeuterio-4-fluorophenoxy)propyl)-6b,7,8,9,10,10a-hexahydro-1H-pyrido[3′,4′:4,5]pyrrolo[1,2,3-de]quinoxalin-2(3H)-one]: in data set [3], the plasma concentration entry is listed as “BLQ”. Besides, in the data set “in vivo” (po, 10 mg/kg), the AUC is 3390 ng·h/mL, the peak level (Cmax) was 68.4 ng/mL, the Tmax came out at 6 h and the concentration at 0.033 h was found to be 1.3 ng/mL. In addition, in the data set “in vivo” (po, 10 mg/kg), the concentration at 0.083 h came to 8.6 ng/mL, the concentration at 0.5 h was 45.8 ng/mL, the concentration at 1 h amounted to 62.4 ng/mL and the concentration at 2 h came to 133 ng/mL. In the data set “in vivo” (po, 10 mg/kg), this molecule yielded a concentration at 6 h of 245 ng/mL, a concentration at 8 h of 187 ng/mL, a concentration at 12 h of 181 ng/mL and a concentration at 24 h of 3.3 ng/mL. Further, the concentration at […] in “in vivo” (po, 10 mg/kg) was determined as 46.7 ng/mL. In the data set “in vivo” (sc, 3 mg/kg), the AUC was 494 ng·h/mL, the highest level (Cmax) was 78.9 ng/mL, the Tmax turned out to be 1 h and the concentration at 0.033 h was 5.7 ng/mL. Also, in the data set “in vivo” (sc, 3 mg/kg), the concentration at 0.083 h amounted to 25.7 ng/mL, the concentration at 0.5 h stood at 76.4 ng/mL, the concentration at 1 h was found to be 78.9 ng/mL and the concentration at 2 h amounted to 62.9 ng/mL. In the data set “in vivo” (sc, 3 mg/kg), this molecule had a concentration at 6 h of 14.1 ng/mL, a concentration at 8 h of 6.5 ng/mL, a concentration at 12 h of 4.1 ng/mL and a concentration at 24 h of 2.1 ng/mL. Besides, in “in vivo” (sc, 3 mg/kg), the concentration at 48 h stood at 2.4 ng/mL, the concentration at 72 h amounted to 1.4 ng/mL and the concentration at […] worked out at 46 ng/mL.
On to `[2H]C([2H])(CCN1CC[C@H]2[C@@H](C1)c1cccc3c1N2CC(=O)N3)Oc1ccc(F)cc1` [Example 7, (6bR,10aS)-8-(3,3-dideuterio-3-(4-fluorophenoxy)propyl)-6b,7,8,9,10,10a-hexahydro-1H-pyrido[3′,4′:4,5]pyrrolo[1,2,3-de]quinoxalin-2(3H)-one], for which the inhibition at 0.1 µM at dopamine D1 receptor amounted to 34.8%. Moreover, in data set [1], the inhibition at 1 µM worked out at 31.1%. Moreover, the inhibition at 0.3 µM on dopamine D2S receptor came to 53.3%. Further, the inhibition at 0.01 µM in data set [2] stood at 63.5%.
Regarding “(6bR,10aS)-8-(1,1,3,3-d4-3-(4-fluorophenoxy)propyl)-6b,7,8,9,10,10a-hexahydro-1H-pyrido[3′,4′:4,5]pyrrolo[1,2,3-de]quinoxalin-2(3H)-one [Example 3]”, in the data set with male Sprague-Dawley rats, the “tolerance during repeated dosing” value is given as “does not produce tolerance” and the “physical dependence upon cessation of dosing” value was “not to produce a syndrome of physical dependence”.
With `[2H]C1([2H])C(=O)Nc2cccc3c2N1[C@H]1CCN(C([2H])([2H])C([2H])([2H])C([2H])([2H])Oc2ccc(F)cc2)C[C@@H]31` [Example 9, (6bR,10aS)-1,1-dideuterio-8-(1,1,2,2,3,3-hexadeuterio-3-(4-fluorophenoxy)-propyl)-6b,7,8,9,10,10a-hexahydro-1H-pyrido[3′,4′:4,5]pyrrolo[1,2,3-de]quinoxalin-2(3H)-one], at dopamine D1 receptor, the inhibition at 0.1 µM is 35.2%. Also, the inhibition at 1 µM in data set [1] was 28.4%. Besides, the inhibition at 0.3 µM on dopamine D2S receptor came to 49.6%. The inhibition at 0.01 µM in data set [2] is 60.1%.
Take `O=C1CN2c3c(cccc3[C@@H]3CN(CCCOc4ccc(F)cc4)CC[C@@H]32)N1` [Formula A]: the inhibition at 0.1 µM at dopamine D1 receptor came to 43.4%. In addition, the inhibition at 1 µM in data set [1] is 33.4%. Also, the “EC50 blocking DOI-induced head twitch” value in [4] is on record as 0.44 mg/kg, p.o. In addition, the inhibition at 0.3 µM on dopamine D2S receptor amounted to 53.6%. In data set [5], the “effect on ERK2 phosphorylation” value is on record as “marginal effects”, the “effect on GluR1 phosphorylation” value is reported as “marginal effects”, the “effect on NR2B phosphorylation” value is listed as “neither the compound of Formula A nor the compound of Formula B has a significant effect” and the “effect on TH phosphorylation” value was “neither the compound of Formula A nor the compound of Formula B has a significant effect”. For the same molecule, the “early phase acute pain response and late phase delayed inflammatory response” value with mouse formalin paw test was “dose-dependently attenuates both the early phase acute pain response and the late phase delayed inflammatory response”. The inhibition at 0.01 µM in [2] came out at 63%.
Regarding `Cc1cccc(C#Cc2ccccc2)n1` [MPEP, 2-methyl-6-(phenylethynyl)pyridine], the “Marbles Buried” value in data set [6] is given as 0.2.
With `O=C1CN2c3c(cccc3[C@@H]3CN(CCCC(=O)c4ccc(F)cc4)CC[C@@H]32)N1` [Formula B, 4-((6bR,10aS)-2-oxo-2,3,6b,9,10,10a-hexahydro-1H,7H-pyrido[3′,4′:4,5]pyrrolo[1,2,3-de]quinoxalin-8-yl)-1-(4-fluoro-phenyl)-butan-1-one], the “EC50 blocking DOI-induced head twitch” value in data set [4] is given as 0.23 mg/kg, p.o. In addition, in data set [5], the “effect on ERK2 phosphorylation” value is “marginal effects”, the “effect on GluR1 phosphorylation” value is “marginal effects”, the “effect on NR2B phosphorylation” value is given as “neither the compound of Formula A nor the compound of Formula B has a significant effect” and the “effect on TH phosphorylation” value was “neither the compound of Formula A nor the compound of Formula B has a significant effect”.
Consider `[2H]c1c([2H])c(OCCCN2CC[C@H]3[C@@H](C2)c2cccc4c2N3CC(=O)N4)c([2H])c([2H])c1F` [Example 6, (6bR,10aS)-8-(3-(2,3,5,6-tetradeuterio-4-fluorophenoxy)propyl)-6b,7,8,9,10,10a-hexahydro-1H-pyrido[3′,4′:4,5]pyrrolo[1,2,3-de]quinoxalin-2(3H)-one], for which the inhibition at 0.1 µM on dopamine D1 receptor was determined as 32.6%. Further, in [1], the inhibition at 1 µM was 29.1%. Moreover, on dopamine D2S receptor, the inhibition at 0.3 µM came out at 48.7%. In data set [2], the inhibition at 0.01 µM is 60.2%.
Turning to `O=C(CCCN1CCC(O)(c2ccc(Cl)cc2)CC1)c1ccc(F)cc1` [haloperidol], in [5], the “increase in TH phosphorylation” value is recorded as 400-500%.
